Laboratory results taken from patent US6656921B1, “Use of zinc hyaluronate against peptic ulcer” (Richter Gedeon Vegyeszeti Gyar RT., priority 1997, dated 2003).
Marks after values point to notes of the source that are not given here.

Assays:
Assay type in all cases: in vivo, rat
[1] = system: acidified ethanol induced gastric lesion; test: Inhibition of acidified-ethanol induced gastric lesions
Experimental: Female RG-Wistar rats weighing between 120-150 g were used. Before experiments animals were fasted for 24 hours but received water ad libitum.
Experiments were carried out according to the technique similar to that described by A. Robert [Gastroenterology 77, […] (1979)].
Acidified ethanol (mixture of 50 ml of abs. ethanol and 1 ml of concentrated HCI) was used as strong irritants. Dose of acidified ethanol was 0.5 ml/100 g body weight with intragastric administration. Test compounds were given orally 30 minutes before the acidified ethanol challenge. When the duration of action of test compound was studied test material was administered 60 or 120 minutes earlier to the irritating effect induced by acidified-ethanol effect. One hour after the acidified ethanol treatment rats were sacrificed by cervical dislocation. Stomachs were removed and opened along the greater curvature and mildly washed down. The longitudinal hemorrhagic lesions were assayed by length.
ED50 value was defined as the dose that gave a 50% decrease in ulcer index.

[2] = system: acidified ethanol induced gastric damage; test: Effect of L-NAME (endogenous NO) on protection against acidified-ethanol induced gastric damage
Experimental: To study the mechanism of action of the compound to be tested, the involvement of endogenous NO in the development of acidified-ethanol induced gastric damage was also studied by intraperitoneal administration of L-N^G-nitroarginine methyl ester (L-NAME). L-NAME at a dose of 25 mg/kg was injected 15 minutes before the test compound. In subsequent experiments the test compound (p.o.), L-NAME (25 mg/kg i.p.), L-arginine (400 mg/kg i.v.) were administered 30, 45 or 60 minutes before oral administration of acidified-ethanol.
The connection between the cytoprotective effect of zinc hyaluronate and endogenic NO was studied by using an inhibitor of the nitrogen(II) oxide biosynthesis namely, N^G-nitro-L-arginine methyl ester (L-NAME). Considering that zinc hyaluronate(II) and zinc hyaluronate(M) had shown the same activity in acidified ethanol test, the latter was the only one tested in this experiment.

[3] = system: stress-induced gastric lesion; test: Inhibition of stress (cold-restraint) induced gastric lesions; details: for Lesion score/stomach ± S.E.M.: 30 min before cold-restraint stress, score 0-3; for Inhibition: 30 min before stress
Experimental: Female RG Wistar rats weighing between 120-150 g were used. Before the experiments animals were fasted for 24 hours but received water ad libitum. Experiments were carried out according to the technique similar to that described by Senay et al., (1967). [Proc. Soc. Exp. Biol. Med.124,1221, (1967)].
Test compounds were given orally. 30 minutes later the animals were immobilized in plastic restraint boxes then placed into a refrigerator at 4° C.-8° C. temperature. Four hours later the animals were removed from both the refrigerator and the restraint boxes and one hour later they were sacrificed by cervical dislocation. The stomachs were removed, opened along the greater curvature and hemorrhagic lesions were scored by a zero to 3 scale: stomachs free from any damage were given a score of 0, stomachs with only a few hemorrhagic lesion were given a score of 1, stomachs with more lesion numbers than 10 were given a score of 2, and stomachs with a lot of lesions were characterized with a score of 3.
The ED50 were defined as the dose needed to decrease the score of gastric lesions by 50%.

[4] = system: acetic acid induced chronic gastric ulcer; test: Inhibition of acetic acid induced chronic gastric ulcer; details: for Ulcerated area mm^2 ± S.E.M.: day 5 to 14 after surgery
Experimental: Female, RG Wistar rats weighing between 120-150 g were used. Before the surgery animals were deprived of food for 24 hours but received water ad libitum. The chronic gastric ulcer was induced by the injection of 25 μl/animal of 20% (v/v) acetic acid into the gastric wall under light ether anaesthesia according to the method similar to that described by Takagi et al. (1969). The oral treatment with the test compounds was started five days after the surgery and continued in a once-a-day regimen up to the 14th day. The animals were killed on the 15th day and their stomachs were dissected. The severity of ulceration was evaluated by the measurement of the diameter of the ulcers and the area affected was calculated. The healing effect was expressed as differences in percentage between the control and test group values.

[5] = system: gastrointestinal motility; test: Gastrointestinal motility in the charcoal propulsion test; details: 100 mg/kg p.o.
Experimental: Experiments were performed on female, RG-Wistar rats weighing 120-140 g, which were fasted for 24 hours but received water ad libitum.
The experimental procedure was carried out according to the technique similar to that described of P. A. Janssen and A. J. Jageneau [J. Pharm. Pharmacel. 9, 381 (1957)].
Test compounds were given orally at a dose of 100 mg/kg. Control animals received physiological saline solution instead of test compounds. 30 minutes later, the 5% (w/v) charcoal suspension was administered orally at a volume of 0.5 ml/animal. 60 minutes after the charcoal treatment the animals were sacrificed by cervical dislocation. The intestine from pylorus to cecum was removed, its lengths measured along with the distance traversed by the charcoal meal.
Motility was expressed as the ratio of length of charcoal suspension to the length of the whole intestine.

[6] = 10 mg/kg p.o., 30 min before acidified ethanol
[7] = 25 mg/kg p.o., 30 min before acidified ethanol
[8] = 25 mg/kg p.o., pretreatment time 60 minutes
[9] = 25 mg/kg p.o., pretreatment time 120 minutes
[10] = 50 mg/kg p.o., 30 min before acidified ethanol
[11] = 50 mg/kg p.o., pretreatment time 60 minutes
[12] = 50 mg/kg p.o., pretreatment time 120 minutes
[13] = 100 mg/kg p.o., 30 min before acidified ethanol
[14] = 100 mg/kg p.o., pretreatment time 60 minutes
[15] = 100 mg/kg p.o., pretreatment time 120 minutes
[16] = D-Arg + L-NAME + ZH/M, 400 + 25 + 50 mg/kg
[17] = L-Arg + L-NAME + ZH/M, 400 + 25 + 50 mg/kg

zinc hyaluronate [Zinc hyaluronate (M)]
Inhibition [1, 6]: 47.7% | Lesion length/stomach mm ± S.E.M. [1, 6]: 57.9 ± 8.2 mm | Inhibition [1, 7]: 69.9% | Lesion length/stomach mm ± S.E.M. [1, 7]: 33.3 ± 7.7 mm | Inhibition [1, 8]: 28.7% | Lesion length/stomach mm ± S.E.M. [1, 8]: 49.7 ± 5.9 mm | Inhibition [1, 9]: 12.2% | Lesion length/stomach mm ± S.E.M. [1, 9]: 53.2 ± 7.7 mm | Inhibition [1, 10]: 88.3% | Lesion length/stomach mm ± S.E.M. [1, 10]: 13.0 ± 3.0 mm | Inhibition [1, 11]: 45.6% | Lesion length/stomach mm ± S.E.M. [1, 11]: 37.9 ± 12.2 mm | Inhibition [1, 12]: 45.9% | Lesion length/stomach mm ± S.E.M. [1, 12]: 32.8 ± 7.5 mm | Inhibition [1, 13]: 97.6% | Lesion length/stomach mm ± S.E.M. [1, 13]: 2.7 ± 1.4 mm | Inhibition [1, 14]: 93.4% | Lesion length/stomach mm ± S.E.M. [1, 14]: 4.6 ± 1.7 mm | Inhibition [1, 15]: 83.0% | Lesion length/stomach mm ± S.E.M. [1, 15]: 10.3 ± 4.6 mm | ED50 (dose giving 50% decrease in ulcer index) ([1]; p.o., 30 min pretreatment): 10.4 mg/kg | Inhibition (compared with the vehicle + vehicle group) [2, 16]: 48.4% | Lesion length/stomach mm ± S.E.M. [2, 16]: 31.2 ± 3.5*d mm | Inhibition (compared with the vehicle + vehicle group) [2, 17]: 60.2% | Lesion length/stomach mm ± S.E.M. [2, 17]: 24.1 ± 4.4*c mm | Effect of L-NAME pretreatment on the gastroprotective activity (in words) ([2]; L-NAME 25 mg/kg): considerably reduced | Inhibition (compared with the vehicle + vehicle group) ([2]; L-NAME + ZH/M, 25 + 50 mg/kg): 31.9% | Lesion length/stomach mm ± S.E.M. ([2]; L-NAME + ZH/M, 25 + 50 mg/kg): 41.2 ± 4.6*b mm | Inhibition (compared with the vehicle + vehicle group) ([2]; Vehicle + ZH/M, 0 + 50 mg/kg): 69.6% | Lesion length/stomach mm ± S.E.M. ([2]; Vehicle + ZH/M, 0 + 50 mg/kg): 18.4 ± 2.3 mm | Lesion score/stomach ± S.E.M. ([3]; 25 mg/kg p.o.): 1.0 ± 0.3 | Inhibition ([3]; 25 mg/kg p.o.): 41.2% | Lesion score/stomach ± S.E.M. ([3]; 50 mg/kg p.o.): 0.4 ± 0.2 | Inhibition ([3]; 50 mg/kg p.o.): 76.5% | Lesion score/stomach ± S.E.M. ([3]; 100 mg/kg p.o.): 0* | Inhibition ([3]; 100 mg/kg p.o.): 100% | ED50 (dose decreasing score of gastric lesions by 50%) ([3]; oral administration): 29.4 mg/kg | Ulcerated area mm^2 ± S.E.M. ([4]; 0.1 mg/kg p.o. once a day): 9.4 ± 2.3 mm^2 | Ulcerated area mm^2 ± S.E.M. ([4]; 1.0 mg/kg p.o. once a day): 7.6 ± 1.4 mm^2 | Effect on healing of acetic acid induced chronic ulcer (in words) ([4]; rat, in vivo): accelerated the healing | Effect on the intestinal motility (in words) [5]: absence of change in activity | Ratio of charcoal suspension to the whole intestinal part [5]: 0.83 ± 0.03 | Propulsion of charcoal suspension mm ± S.E.M. ([5]; 30 min before charcoal, 60 min after charcoal): 655 ± 3.9 mm
